From patent US20220175764A1 (priority 2019, published 2022)
“Also recorded” adds a separate entry of the source.

What was measured:
DIAMOND™ mice [1] = assay type: in vivo; settings: 150 mg/kg oral gavage; arm terminated early
Description: 8 mice gavaged with Curcumin at a dose of 150 mg/kg.
8 mice dosed from week 8 (t=8) until week 20 (t=20) on the Western Diet Sugar Water with once (1×) daily oral gavage with curcumin 150 mg/kg.

DIAMOND™ mice [2] = test: Gut permeability by serum dextran competitive ELISA after 4 kDa dextran gavage, WDSW-fed DIAMOND mice (Example 1); assay type: in vivo, mouse; settings: for Western Diet-induced GP (conclusion): Example 1 conclusion
Description: Pioglitazone was dosed at 30 mg/kg for the entire 12 weeks. Gut permeability (GP) was assessed twice at 12 weeks and 20 weeks by measuring dextran absorption into the bloodstream using a competitive enzyme-linked immunosorbent assay (ELISA) with 20 μL of serum collected by tail nick. Mice were gavaged with 4 kDa dextran at 600 mg/kg; the more permeable the gut, the more dextran is detected in serum. Results between dose groups were compared using Student's 2-tailed t-test, and pair-wise analysis was performed on serial measurements from week-12 to week-20 to assess drug impact on progression of GP over time. Serum and liver tissues were collected at necropsy, formalin-fixed, paraffin-embedded (FFPE) slides stained with H&E and Sirius Red, and liver pathology was assessed.

DIAMOND™ mice [3] = test: Leaky gut assay / Dextran Assay - gut permeability at week 12 and week 20 (Example 2); assay type: in vivo, mouse; settings: for GP at week-12 compared to vehicle control (Arm-5): after 4 weeks of treatment; for GP at week-20 compared to vehicle control: after 12 weeks of treatment; for GP week-20 vs week-12: mice with data at both time points, paired t-test
Description: At 8 weeks on diet (t=8), mice were randomized into experimental groups based on the most recent body weight. […] Gut integrity/permeability was measured with the leaky gut assay on week 12 (one month on test article treatment) and on week 20 immediately prior to sacrifice. At each assay time point, between 0.2 ml and 0.4 ml of 4 kDa dextran solution (2 g/10 ml PBS solution, 0.2 g/mL) was orally gavaged to mice. After 4 hours, blood was collected from the tail vein and processed to serum. Dextran concentration in samples was measured by ELISA.
Gut integrity/permeability was measured with the leaky gut assay at two time points (12-week and 20-week) by competitive Dextran ELISA, 4 weeks after initial drug dosing with test article or vehicles, and immediately prior to sacrifice. Fresh fecal pellets were collected prior to each assay and placed into RNAlater and frozen (for possible future gut microbiome analysis).
• a. The leaky gut assay was performed at week 12 (one month on treatment) and immediately prior to sacrifice. • b. The procedure for the dextran was as follow: • i. 2 g of 4 kD dextran was weighed into a static free weigh dish. • ii. The dextran was mixed into a 10 ml of PBS solution. • iii. Between 0.2 ml and 0.4 ml of dextran solution was orally gavaged into mice. Each mouse staggered by 10 minutes to maintain blood dextran consistency during blood collection. • iv. 4 hours post gavage lidocaine applied to the tails of the mice in the order that they were gavaged. • v. The mice were lightly restrained in a mouse restraint device. • vi. After 5 minutes 70% alcohol was applied to a cotton swab and used to wipe off the lidocaine. • vii. Sterile scissors were used to perform a tail nick. • viii. 140 μl of whole blood was collected into a capillary tube. • ix. The capillary tubes were spun at 3,000 RPM for 8 minutes. • x. The capillary tubes were broken at the supernatant line and the serum was blown into an Eppendorf tube and snap frozen in liquid nitrogen.

DIAMOND™ mice [4] = test: Liver weight at necropsy (Example 2); assay type: in vivo, mouse; settings: week 20
Description: Body weight and liver weight at time of euthanasia were recorded. Any abnormal gross anatomy signs on the body or liver would have been noted. […] The liver was processed into sections.

DIAMOND™ mice [5] = test: Serum lipid profile, Alere Cholestech LDX (Example 2); assay type: in vivo, mouse; settings: serum at necropsy
Description: (§1) Lipid (total cholesterol, LDL, HDL, triglycerides, HDL calc.) and hepatic (ALB, AST, ALT, Alk, Phos, BUN, GGT, T Bil) panels were performed as described below. Due to natural variations in mice physiology extra serum might not be available to repeat testing.
40-50 microliters of thawed serum were placed into the sample well of an AL-10-991 test cassette, then the test cassette placed into the Alere Cholestech LDX blood lipid analyzer. The Alere Cholestech is FDA approved and CLIA waived for human use at POC and is used by numerous drug companies and CROs in preclinical studies because it only requires a small amount of blood. It may be used with whole blood, serum or plasma for humans, but mouse blood clots much faster and so whole blood in our experience has a higher failure rate. We therefore used serum.
Readouts were: • 1. Total cholesterol (T-chol) • 2. Triglycerides (TRIGS) (45 lower LOD) • 3. Glucose (standard range) • 4. HDL (100 upper LOD) • 5. LDL (calculated T-Chol—HDL)

DIAMOND™ mice [6] = test: Liver histology scoring, H&E and Sirius Red (Example 2); assay type: in vivo, mouse
Description: Liver samples were fixed in 10% neutral buffered formalin for 36-48 hours depending on the size of the sample before being placed into 70% alcohol. The samples were then processed into FFPE blocks. The FFPE blocks were sectioned and three (3) slides were cut per block and submitted for H&E and Sirius Red staining, and subsequent histology analysis. The samples' identity was blinded at the time of shipment for unbiased scoring.
Slide evaluation and scoring include NAS component scoring (fibrosis, steatosis grade and percentage, inflammation, ballooning), NAS score, SAF activity score, Fibrosis NASH CRN Score, Perisinusoidal Fibrosis score, and NASH category score. A histopathology sub-report is to be prepared containing scores and representative photographic images from each group.

DIAMOND™ mice [7] = test: Serum LFT / hepatic panel, Abaxis VS2 (Example 2); assay type: in vivo, mouse; settings: serum at necropsy
Description: as §1
Abaxis VS2 blood chemistry analyzers were used for measuring LFTs. This instrument is FDA approved for veterinary use, CLIA waived, and self-calibrating. It is the equivalent instrument to the Abaxis Piccolo instrument for human diagnostic testing. Phenobarbital test rotors (catalog #500-0049) were used which measure AST, ALT, ALP, GGT, ALB, and Total Bilirubin. The reactions are colorimetric, read automatically by the VS2 instrument, and results printed on a sticker which is attached to the necropsy specimen sheet and then entered into Excel. A minimum of 100 microliters of sample is needed for this test rotor, which may be either undiluted serum or diluted serum, in a ratio of 1:1 50 microliters of serum: 50 microliters of PBS without affecting accuracy of measurement of analytes. Significant hemolysis may render samples un-readable.

DIAMOND™ mice [8] = test: Blood glucose and ketones from tail nick (Example 2); assay type: in vivo, mouse; settings: at necropsy
Description: Following completion of the dosing period on t=20, the mice were placed into a clean cage and fasted for six (6) hours prior to euthanasia. Animals were euthanized by exposing them to carbon dioxide as an anesthetic followed by cardiac puncture for exsanguination. Cervical dislocation was performed as a secondary means of euthanasia. A volume of 3-5 μl of whole blood were collected from a tail nick premortem and used for glucose and ketone testing. A second volume of 300-500 μl of blood collected at euthanasia were processed to serum, aliquoted into small vials and flash frozen in liquid nitrogen for further tests including liver function and lipid tests as per study protocol. Remaining serum was stored frozen for further possible testing.
• a. Immediately prior to euthanasia a tail nick was performed. Whole blood was used to measure ketones and glucose. • b. Euthanasia—The mice were placed into a clean cage and fasted for 6 hours prior to euthanasia. Blood collection took place during euthanasia via cardiac puncture. The blood was collected into micro-serum separator tubes and processed to serum by centrifugation under 4 degrees Celsius for 15 minutes at 5,000 RMP, aliquoted in 100 μl aliquots, and serum flash frozen. Serum samples were stored frozen at −80° C. until use. […]

[9] = tested on: Staphylococcus, Streptococcus, Enterococcus, and Enterobacteriaceae; settings: species of Staphylococcus; cited from earlier work
[10] = Results Analysis 2, Week 12, after 4 weeks of treatment
[11] = Results Analysis 2, Week 20, after 12 weeks of treatment
[12] = Results Analysis 1, pair-wise analysis
[13] = end of study, listed as Vitamin-E

| SMILES | Western Diet-induced GP (conclusion) (DIAMOND™ mice [2]) | mean serum dextran concentration (DIAMOND™ mice [2]; [10]) | fold reduction in mean serum dextran concentration compared with vehicle (DIAMOND™ mice [2]; Results Analysis 2, Week 20) | serum dextran concentration (significance) (DIAMOND™ mice [2]; Results Analysis 2, Week 20) | mean serum dextran concentration (DIAMOND™ mice [2]; [11]) | GP at week-12 compared to vehicle control (Arm-5) (DIAMOND™ mice [3]) | GP at week-20 compared to vehicle control (DIAMOND™ mice [3]) | GP week-20 vs week-12 (DIAMOND™ mice [3]) | liver weight vs Vehicle Control (Arm-5) (DIAMOND™ mice [4]) | triglycerides vs vehicle control (Arm-5) (DIAMOND™ mice [5]) | prevalence of NASH (disease category) (DIAMOND™ mice [6]; end of study) | BUN vs Vehicle control groups (Arm-5 and Arm-10) (DIAMOND™ mice [7]) | Ketones blood level vs vehicle control (Arm-5) (DIAMOND™ mice [8]) | also measured |
| --- | --- | --- | --- | --- | --- | --- | --- | --- | --- | --- | --- | --- | --- | --- |
| COc1cc(/C=C/C(=O)CC(=O)/C=C/c2ccc(O)c(OC)c2)ccc1O [Curcumin] | – | – | – | – | – | – | – | – | – | – | – | – | – | mortality (DIAMOND™ mice [1]): excess mortality |
| C[N@+]1(CC2CC2)CC[C@]23c4c5ccc(O)c4O[C@H]2C(=O)CC[C@@]3(O)[C@H]1C5.[Br-] [MNTX, (R)-N-(cyclopropylmethyl) noroxymorphone methobromide] | dramatically improved | 91 µg/mL | 2.9 fold | significant reduction | 74.7 µg/mL | significantly lower GP | persists at week-20; also recorded: significantly lower GP | maintained | significantly lower liver weight | no significant effect | 38% | – | – | fold reduction of serum dextran compared to the VC group (DIAMOND™ mice [2]; Results Analysis 1, 12 week timepoint): 2.7 fold; serum dextran concentration (DIAMOND™ mice [2]; Results Analysis 1, 12 week timepoint, 4 weeks of treatment): 90.9 µg/mL; average serum dextran concentration, fold lower than the VC group (DIAMOND™ mice [2]; Results Analysis 1, 20 week timepoint, 12 weeks of treatment): 2 fold; fold reduction in mean serum dextran concentration compared with vehicle (DIAMOND™ mice [2]; Results Analysis 2, Week 12): 1.8 fold; serum dextran concentration relative to vehicle (significance) (DIAMOND™ mice [2]; Results Analysis 2, Week 12): significant reduction |
| CCc1ccc(CCOc2ccc(CC3SC(=O)NC3=O)cc2)nc1 (centres unmarked) [Pioglitazone] | – | 121 µg/mL | 3.0 fold | – | 71.8 µg/mL | – | – | – | – | – | – | significantly increased | – | steatosis-only (disease category) (DIAMOND™ mice [6]; end of treatment): 100% |
| CO[C@H]1/C=C/O[C@@]2(C)Oc3c(C)c(O)c4c(O)c(c5c(nc6cc(C)ccn65)c4c3C2=O)NC(=O)/C(C)=C\C=C\[C@H](C)[C@H](O)[C@@H](C)[C@@H](O)[C@@H](C)[C@H](OC(C)=O)[C@@H]1C [Rifaximin] | dramatically improved | 151 µg/mL | – | significant reduction | 81.2 µg/mL | no changes | significantly lower GP | borderline significant | did not reduce liver weight | no effect | – | significantly increased | slightly decreased; also recorded: decreased | serum dextran average at 20 weeks (DIAMOND™ mice [2]; [12]): 85.9 µg/mL; serum dextran, 12-week average (DIAMOND™ mice [2]; [12]): 154.0 µg/mL; improvement of leaky gut in the 8 weeks between first and second measurement (DIAMOND™ mice [2]; Results Analysis 1, week 12 to week 20): 45%; improvement in leaky gut during the 8 weeks between assessments (DIAMOND™ mice [2]; Results Analysis 2, pair-wise, Week 12 to Week 20): 46.2%; triglycerides vs vehicle control (Arm-5) (DIAMOND™ mice [5]; listed as Arm-3): no significant effect; Liver steatosis % vs control Arm-5 (DIAMOND™ mice [6]; end of study): increased; also recorded: slight increase in steatosis; in vitro antibacterial activity [9]: active |
| Cc1c(C)c2c(c(C)c1O)CC[C@@](C)(CCC[C@H](C)CCC[C@H](C)CCCC(C)C)O2 [Vitamin E, a-tocopherol] | – | – | – | – | – | no effect | no effect | Trending upward | lower | no effect | 38% | – | moved ketone levels up | GP week-20 vs week-12 (DIAMOND™ mice [3]; listed as Vit. E): trends toward an increase in GP; triglycerides vs vehicle control (Arm-5) (DIAMOND™ mice [5]; listed as Arm-9): no significant effect; ALT vs control vehicles (DIAMOND™ mice [7]): significantly increased; AST vs control vehicles (DIAMOND™ mice [7]): significantly increased; Albumin vs vehicle control (DIAMOND™ mice [7]): lower albumin; Albumin vs vehicle control (DIAMOND™ mice [7]; listed as Vitamin-E): decreased; Lobular inflammation vs control Arm-5 (DIAMOND™ mice [6]; end of study): increase; NAFLD Activity Score (NAS) vs control Arm-5 (DIAMOND™ mice [6]; end of study): slight increase; Steatosis, Activity and Fibrosis (SAF) score vs control Arm-5 (DIAMOND™ mice [6]; end of study): slight increase; Lobular inflammation vs control Arm-5 (DIAMOND™ mice [6]; [13]): increased; NAFLD Activity Score (NAS) vs control Arm-5 (DIAMOND™ mice [6]; [13]): increased; Steatosis, Activity and Fibrosis (SAF) score vs control Arm-5 (DIAMOND™ mice [6]; [13]): increased |
